Columns and labels:
[1] = tested on: antigen-induced bronchoconstriction; assay: In vivo screening procedure for SRS-A synthesis inhibitors in guinea pigs; conditions: 10 mg/kg i.v., 1 minute prior to antigen challenge
Source text: Paralyzed, artificially ventilated, actively sensitized guinea pigs are pretreated with indomethacin (to divert the flow of endogenous arachidonic acid through the lipoxygenase pathway), pyrilamine maleate (to block any bronchoconstriction due to released histamine) and propranol (to enhance the sensitivity of the guinea pig bronchoconstriction to SRS-A) prior to challenging the animal with antigen. Under these conditions the resulting antigen-induced bronchoconstriction has been characterized as being attributable to the synthesis and release of SRS-A in the guinea pig lung. Test compounds are initially studies for their inhibitory properties in this test system by the intravenous route (at 10 mg/kg) given 1 minute prior to antigen challenge.

[2] = biological target: T1, TXA2 synthase (Homo sapiens, UniProt P24557); assay: Thromboxane synthase inhibition, in vitro; type: biochemical; conditions: at 10^-7M; microsomal fractions from human platelets; read-out: TXA2Synthase Inhibition (% at 10^-7M)
T1 construct: using microsomal fractions from human platelets as enzyme source; from tissue; host or cells: human platelets (microsomal fraction)
T1 sequence (P24557 1-533): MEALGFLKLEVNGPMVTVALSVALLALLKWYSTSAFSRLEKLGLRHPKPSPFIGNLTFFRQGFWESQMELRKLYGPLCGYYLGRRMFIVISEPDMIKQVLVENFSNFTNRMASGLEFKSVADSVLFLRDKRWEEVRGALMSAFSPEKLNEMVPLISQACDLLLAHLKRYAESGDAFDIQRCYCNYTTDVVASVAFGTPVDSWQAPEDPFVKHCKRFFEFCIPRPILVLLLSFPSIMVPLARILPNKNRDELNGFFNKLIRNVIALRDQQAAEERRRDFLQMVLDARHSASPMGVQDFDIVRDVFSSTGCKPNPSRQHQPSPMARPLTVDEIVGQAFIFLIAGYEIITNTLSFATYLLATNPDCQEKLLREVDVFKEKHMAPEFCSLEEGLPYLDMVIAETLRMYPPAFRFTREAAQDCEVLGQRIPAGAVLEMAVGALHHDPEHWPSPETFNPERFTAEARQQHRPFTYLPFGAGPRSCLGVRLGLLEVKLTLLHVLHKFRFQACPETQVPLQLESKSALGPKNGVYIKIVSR
Description: TXA2 synthase activity is measured by following the conversion of ^14C-prostaglandin endoperoxide (PGH2) to ^14C-thromboxane A2 (TXA2) using microsomal fractions from human platelets as enzyme source. In the aqueous incubation medium, the TXA2 decomposes rapidly into TXB2. The amount of TXA2 synthase is adjusted so that under the conditions of the assay approximately 80-90% of the substrate, PGH2, is converted to product in control tubes. To prepare ^14C-PGH2, ^14C-AA (50-60 mCi/mmole: Rose Chem.) is incubated with sheep seminal vesicular gland microsomes for 1.5 minutes at 37°C and then the ^14C-PGH2 is extracted with diethylether, purified on columns of Sephadex LH-20 or silicic acid, and stored in acetone at -70°C. Incubations are done as follows. Sufficient ^14C-PGH2 to yield a final substrate concentration of 10 µM (30,000 cpm) is added to the incubation tubes and then the acetone is removed under nitrogen. The tubes are placed in an ice bath and then 215 1 of ice cold phosphate buffered saline, 10 1 of ethanol (control) or of test drug in ethanol, and 25 1 of the microsomal suspension are added with mixing in that order as rapidly as possible. The tubes are incubated at 22°C for 2 minutes, the reaction is stopped and then the radioactive products and the uncoverted PGH2 are extracted and analyzed by thin layer chromatography. […] The amount of ^14C-PGH2 converted to products was used as a measure of TXA2 synthase activity. Inhibitors were tested initially at a final concentration of 100 µM. Results obtained with representative compounds of the present invention in this assay are summarized hereafter in Table I.

SMILES	inhibition of the bronchoconstriction [1]	inhibition at 0.1 µM [2]
CC(C)c1ccc2nc3sc(C(=O)NCCCCc4ccccn4)cn3c(=O)c2c1 [Example 11]	44%	
CC(C)c1ccc2nc3sc(C(=O)NCCCCn4ccnc4)cn3c(=O)c2c1 [the 1st table, row 8]		67%
